Paper PMC8949503, “Radiosynthesis and Preclinical Evaluation of Bispecific PSMA/FAP Heterodimers for Tumor Imaging” (Pharmaceuticals, 2022)

Experiments:
[1] = molecular target: T1, FAP (Homo sapiens, UniProt Q12884); assay: competitive binding to FAP on A549-FAP cells vs [18F]FAPI-42; conditions: for IC50: competition with [18F]FAPI-42, 60 min 37 °C
T1 construct: expressed in transfected cells
T1 sequence (Q12884 1-760): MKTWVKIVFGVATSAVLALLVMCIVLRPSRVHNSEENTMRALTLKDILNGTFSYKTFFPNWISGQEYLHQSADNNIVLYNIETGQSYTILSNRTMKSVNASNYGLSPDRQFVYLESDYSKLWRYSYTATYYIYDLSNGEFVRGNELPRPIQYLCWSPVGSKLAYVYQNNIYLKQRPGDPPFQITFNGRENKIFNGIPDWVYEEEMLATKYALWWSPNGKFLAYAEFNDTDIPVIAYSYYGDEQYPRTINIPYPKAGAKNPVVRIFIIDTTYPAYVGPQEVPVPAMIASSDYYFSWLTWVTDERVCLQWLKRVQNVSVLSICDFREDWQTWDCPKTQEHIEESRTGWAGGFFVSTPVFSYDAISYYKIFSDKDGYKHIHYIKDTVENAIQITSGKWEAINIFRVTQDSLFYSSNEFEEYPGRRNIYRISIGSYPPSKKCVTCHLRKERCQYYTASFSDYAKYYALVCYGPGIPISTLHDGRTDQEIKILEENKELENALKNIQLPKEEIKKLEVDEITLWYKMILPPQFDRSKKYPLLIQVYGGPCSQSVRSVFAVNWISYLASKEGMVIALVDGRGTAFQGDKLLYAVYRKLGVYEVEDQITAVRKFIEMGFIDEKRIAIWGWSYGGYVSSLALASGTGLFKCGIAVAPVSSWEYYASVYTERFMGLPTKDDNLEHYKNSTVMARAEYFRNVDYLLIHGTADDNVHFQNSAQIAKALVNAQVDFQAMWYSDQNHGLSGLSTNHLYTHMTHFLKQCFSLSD
Protocol: (§1) PSMA-positive 22Rv1 cells (purchased from Institute of Biochemistry and Cell Biology, Shanghai, China) and stably FAP-transfected A549-FAP cells (acquired using lentiviral infection) were used for the cell-based experiments. The 22Rv1 cells were cultivated in RPMI-1640 medium (Gibco) at 37 °C/5% carbon dioxide, while the A549-FAP cells were cultivated in DMEM medium. Both media were supplemented with 10% heat-inactivated fetal bovine serum (FBS) and 1% penicillin/streptomycin (Gibco). Puromycin (1 µg/mL) was also added to the media to maintain FAP expression.
(§2) Cells were seeded in 12-well plates 2 days in advance to achieve a final confluence of approximately 80–90% (4–5 × 10^5 cells/well). The medium was displaced by 1 mL fresh medium without FBS. The method of cell studies was similar to a method reported previously. For the competitive binding experiments, cells were incubated with the known radiotracers ([^18F]FAPI-42 for the FAP receptor and [^18F]AlF-PSMA-BCH for PSMA) in the presence of 7 different concentrations (10^−5–10^−11 M) of the corresponding unlabeled heterodimers or corresponding monomer and incubated for 60 min at 37 °C. In all experiments, the cells were washed twice with PBS, lysed with 1 M NaOH, and counted using a γ-counter. IC50 values were calculated by fitting the data using a nonlinear regression algorithm (implemented in SPSS). For the radioligand binding studies, the cells were incubated for 5, 15, 30, 60, or 120 min at 37 °C after the addition of the heterodimer or corresponding monomeric radiotracer radiotracers. The blocking experiments were determined by adding the corresponding competitors (4.4 μM 2-PMPA for 22Rv1 cells and 2.3 μM DOTA-FAPI-04 for A549-FAP cells). Radioactivity was measured using a γ-counter, normalized to 1 million cells (1 mio cells), and calculated as the percentage of the applied dose (%ID/1 mio cells). For the internalization experiments, the cells were incubated with the radiolabeled compound for 60 min, washed twice with 1 mL PBS, and then incubated for 10 min with 1 mL glycine HCl (1 M, pH 2.2) to detach the extracellular bound tracer. Next, the cells were washed with PBS (2.0 mL) and lysed with 1 M NaOH (1.5 mL). The radioactivity of the acid wash solution (extracellularly bound tracer) and cell lysate (internalized tracer) was assessed separately using a γ-counter. For the efflux experiments, the radioactive medium was removed after 60 min incubation and replaced with non-radioactive medium. At predetermined time points of 15, 30, 60, and 120 min, the cells were washed with 1.0 mL PBS three times and then lysed. The radioactivity of the remaining cells was assessed using a γ-counter. Each experiment was conducted three times with three or four replicates per independent experiment.

[2] = molecular target: T2, PSMA (Homo sapiens, UniProt Q04609); assay: competitive binding to PSMA on 22Rv1 cells vs [18F]AlF-PSMA-BCH; conditions: for IC50: competition with [18F]AlF-PSMA-BCH, 60 min 37 °C
T2 construct: PSMA-positive 22Rv1 cells; host or cells: 22Rv1 cells
T2 sequence (Q04609 whole entry): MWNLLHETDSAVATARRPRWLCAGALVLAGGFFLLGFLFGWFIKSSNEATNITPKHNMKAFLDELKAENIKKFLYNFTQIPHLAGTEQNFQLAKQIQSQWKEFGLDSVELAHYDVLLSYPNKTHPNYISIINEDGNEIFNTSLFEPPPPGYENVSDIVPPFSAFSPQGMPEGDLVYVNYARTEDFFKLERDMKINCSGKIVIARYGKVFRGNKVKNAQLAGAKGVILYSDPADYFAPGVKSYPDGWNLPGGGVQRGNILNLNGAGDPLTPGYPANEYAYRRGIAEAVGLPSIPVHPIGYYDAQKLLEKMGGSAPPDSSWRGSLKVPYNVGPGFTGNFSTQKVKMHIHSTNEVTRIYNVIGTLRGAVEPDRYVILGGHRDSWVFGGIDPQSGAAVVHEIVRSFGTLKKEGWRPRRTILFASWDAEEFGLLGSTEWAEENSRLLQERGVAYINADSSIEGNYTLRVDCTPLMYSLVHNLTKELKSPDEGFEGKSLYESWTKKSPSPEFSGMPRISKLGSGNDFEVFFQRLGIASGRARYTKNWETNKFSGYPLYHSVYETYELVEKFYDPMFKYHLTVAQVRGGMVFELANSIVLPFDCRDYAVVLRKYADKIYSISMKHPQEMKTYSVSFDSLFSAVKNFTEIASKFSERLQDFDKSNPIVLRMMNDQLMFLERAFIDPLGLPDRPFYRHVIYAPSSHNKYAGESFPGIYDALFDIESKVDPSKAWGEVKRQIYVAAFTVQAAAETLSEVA
Protocol: as §1, §2

[3] = n-octanol/PBS partition coefficient (logD); format: physicochemical; conditions: PBS pH 7.4, ambient temperature
Protocol: An aliquot (74 kBq) of [^18F]AlF-PSMA-FAPI-01 or [^18F]AlF-PSMA-FAPI-02 was added to a centrifuge tube containing a mixture of phosphate-buffered solution (PBS, pH 7.4, 5.0 mL) and n-octanol (5.0 mL). The mixture was vigorously vortexed at ambient temperature for 5 min and then centrifuged (10,000 rpm, 5 min). Three samples (each 100 µL) from each phase underwent radioactivity measurement using a γ-counter (CAPRAC-R, Capintec, Inc., Ramsey, NJ, USA).

[4] = test system: A549-FAP cells; assay: cell uptake and blocking study in A549-FAP cells; format: cell-based; conditions: for cell uptake, blocked: +DOTA-FAPI-04 (2.3 μM)
Protocol: as §1, §2

[5] = test system: A549-FAP tumor-bearing nude mice; assay: tissue biodistribution and blocking in A549-FAP tumor-bearing nude mice; format: in vivo; conditions: 1 h p.i.
Protocol: (§3) For the biodistribution and micro-PET imaging studies, male BALB/c nude mice (6–8 weeks) were subcutaneously inoculated with 1 × 10^7 22Rv1 or 5 × 10^6 A549-FAP cells in the right shoulder. Mice were imaged or used in the biodistribution studies when the tumor reached 5–10 mm in diameter.
(§4) Mice bearing 22Rv1 or A549-FAP (n = 4 in each group) tumors were euthanized 60 min after intravenous administration of each tracer (740–1480 KBq/mouse). In the blocking group, the same experiment was conducted by co-injecting 50 μg of 2-PMPA for mice bearing 22Rv1 tumors or 50 μg of DOTA-FAPI-04 for mice bearing A549-FAP tumors. The organs of interest and tumors were quickly dissected and weighed. Radioactivity was assessed using a γ-counter and calculated as the percentage injected dose per gram (%ID/g).

[6] = test system: 22Rv1 tumor-bearing nude mice; assay: tissue biodistribution and blocking in 22Rv1 tumor-bearing nude mice; format: in vivo; conditions: 1 h p.i.
Protocol: as §3, §4

[7] = test system: A549-FAP tumor xenografts; assay: dynamic micro-PET imaging in A549-FAP tumor xenografts; format: in vivo; conditions: A549-FAP tumor-bearing nude mice, up to 2 h p.i.
Protocol: as §3
Mice bearing xenografted 22Rv1 or A549FAP tumors (n = 3 per group) were anesthetized and placed in the prone position in a micro-PET scanner (Siemens, Erlangen, Germany). Dynamic PET/CT images were acquired 2 h post-injection (p.i.) with the radiotracer (5.55–11.1 MBq). The blocking experiments were performed by co-injecting 3 mg/kg of 2-PMPA for mice bearing 22Rv1 tumors or 3 mg/kg of DOTA-FAPI-04 for mice bearing A549-FAP tumors. The images were reconstructed using a three-dimensional ordered-subset expectation maximum algorithm and converted to %ID/g. Attenuation correction was performed using the unenhanced low-dose CT data. For data analysis, the regions of interest (ROIs) were manually drawn over the tumors and major organs on decay-corrected whole-body coronal images obtained using Inevon Research Workplace 4.1 software.

[8] = co-injected DOTA-FAPI-04 3 mg/kg

N#C[C@@H]1CC(F)(F)CN1C(=O)CNC(=O)c1ccnc2ccc(OCCCN3CCN(C(=O)CN4CCN(CC(=O)O)CCN(CC(=O)O)CC4)CC3)cc12 [NOTA-FAPI-42, reference compound]
IC50 [1]: 14.5 nM

O=C(O)CC[C@H](NC(=O)N[C@@H](CCCCNC(=O)[C@@H](Cc1ccc2ccccc2c1)NC(=O)C1CCC(CNC(=O)CN2CCN(CC(=O)O)CCN(CC(=O)O)CC2)CC1)C(=O)O)C(=O)O (stereo partly shown) [NOTA-PSMA-BCH, reference compound]
IC50 [2]: 2.5 nM

N#C[C@@H]1CC(F)(F)CN1C(=O)CNC(=O)c1ccnc2ccc(OCCCC(=O)NCCCC[C@H](NC(=O)CN3CCN(CC(=O)O)CCN(CC(=O)O)CC3)C(=O)NCC3CCC(C(=O)N[C@H](Cc4ccc5ccccc5c4)C(=O)NCCCC[C@H](NC(=O)N[C@@H](CCC(=O)O)C(=O)O)C(=O)O)CC3)cc12 (stereo partly shown) [NOTA-PSMA-FAPI-01]
fold higher in potency than the monomer NOTA-FAPI-42 [1]: approximately 9 fold
IC50 [1]: 1.7 nM
fold less potent than the monomer NOTA-PSMA-BCH [2]: approximately 13 fold
IC50 [2]: 33.7 nM

N#C[C@@H]1CC(F)(F)CN1C(=O)CNC(=O)c1ccnc2ccc(OCCCN3CCN(C(=O)CCC(=O)NCCCC[C@H](NC(=O)CN4CCN(CC(=O)O)CCN(CC(=O)O)CC4)C(=O)NCC4CCC(C(=O)N[C@H](Cc5ccc6ccccc6c5)C(=O)NCCCC[C@H](NC(=O)N[C@@H](CCC(=O)O)C(=O)O)C(=O)O)CC4)CC3)cc12 (stereo partly shown) [NOTA-PSMA-FAPI-02]
fold higher in potency than the monomer NOTA-FAPI-42 [1]: ~3 fold
IC50 [1]: 5.8 nM
fold less potent than the monomer NOTA-PSMA-BCH [2]: ~4 fold
IC50 [2]: 9.8 nM

N#C[C@@H]1CC(F)(F)CN1C(=O)CNC(=O)c1ccnc2ccc(OCCCC(=O)NCCCC[C@H](NC(=O)CN3CCN4CCN(CC3)CC(=O)[O][Al]([18F])[O]C(=O)C4)C(=O)NCC3CCC(C(=O)N[C@H](Cc4ccc5ccccc5c4)C(=O)NCCCC[C@H](NC(=O)N[C@@H](CCC(=O)O)C(=O)O)C(=O)O)CC3)cc12 (stereo partly shown) [[^18F]AlF-PSMA-FAPI-01]
n-octanol/PBS distribution coefficient (logD) [3]: −2.74 ± 0.02
cell uptake ([4]; 5 min): 8.15 ± 0.31 % ID/1 million cells
cell uptake, blocked ([4]; 5 min): 0.67 ± 0.07 % ID/1 million cells
cell uptake ([4]; 15 min): 16.57 ± 0.98 % ID/1 million cells
cell uptake, blocked ([4]; 15 min): 0.71 ± 0.09 % ID/1 million cells
cell uptake ([4]; 30 min): 23.73 ± 0.33 % ID/1 million cells
cell uptake, blocked ([4]; 30 min): 0.77 ± 0.01 % ID/1 million cells
cell uptake ([4]; 60 min): 30.36 ± 3.53 % ID/1 million cells
cell uptake, blocked ([4]; 60 min): 0.83 ± 0.09 % ID/1 million cells
cell uptake ([4]; 120 min): 28.23 ± 2.97 % ID/1 million cells
cell uptake, blocked ([4]; 120 min): 1.16 ± 0.06 % ID/1 million cells
A549-FAP tumor uptake [5]: 6.40 ± 0.32 %ID/g
Blood uptake [5]: 2.36 ± 0.60 %ID/g
Bone uptake [5]: 4.09 ± 0.76 %ID/g
Brain uptake [5]: 0.16 ± 0.03 %ID/g
Gall bladder uptake [5]: 2.02 ± 0.40 %ID/g
Heart uptake [5]: 1.56 ± 0.14 %ID/g
Kidney uptake [5]: 23.88 ± 3.01 %ID/g
Liver uptake [5]: 1.38 ± 0.11 %ID/g
Lung uptake [5]: 1.82 ± 0.18 %ID/g
Muscle uptake [5]: 2.18 ± 0.48 %ID/g
Small intestine uptake [5]: 1.23 ± 0.21 %ID/g
Spleen uptake [5]: 0.99 ± 0.17 %ID/g
Stomach uptake [5]: 1.03 ± 0.13 %ID/g
A549-FAP tumor uptake, Blocked [5, 8]: 1.38 ± 0.77 %ID/g
Blood uptake, Blocked [5, 8]: 0.88 ± 0.62 %ID/g
Bone uptake, Blocked [5, 8]: 1.53 ± 0.21 %ID/g
Brain uptake, Blocked [5, 8]: 0.09 ± 0.03 %ID/g
Gall bladder uptake, Blocked [5, 8]: 1.67 ± 0.32 %ID/g
Heart uptake, Blocked [5, 8]: 0.41 ± 0.02 %ID/g
Kidney uptake, Blocked [5, 8]: 28.65 ± 6.05 %ID/g
Liver uptake, Blocked [5, 8]: 0.79 ± 0.37 %ID/g
Lung uptake, Blocked [5, 8]: 1.66 ± 0.33 %ID/g
Muscle uptake, Blocked [5, 8]: 0.32 ± 0.05 %ID/g
Small intestine uptake, Blocked [5, 8]: 1.04 ± 0.53 %ID/g
Spleen uptake, Blocked [5, 8]: 0.67 ± 0.20 %ID/g
Stomach uptake, Blocked [5, 8]: 0.91 ± 0.43 %ID/g
22Rv1 tumor* uptake [6]: 12.37 ± 0.40 %ID/g
Kidney* uptake [6]: 23.4 ± 9.22 %ID/g
22Rv1 tumor* uptake, Blocked ([6]; co-injected 2-PMPA 3 mg/kg): 5.03 ± 0.75 %ID/g
Kidney* uptake, Blocked ([6]; co-injected 2-PMPA 3 mg/kg): 2.85 ± 0.38 %ID/g
time–activity curves (micro-PET) [7]: rapid uptake and excellent retention in tumors, as well as rapid clearance from non-target organs via the kidneys
